Where two headings read alike, the source gives them in different places. Where only a bound is given, the exact number is not on record here.

Experiment [1] has as its target Human cGAS enzyme (Homo sapiens (Human), UniProt Q8N884). The experiment in a line: Human cGAS enzyme assay (hcGAS IC50, in vitro), cGAMP formation by RapidFire MS.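 Note: recombinant human cGAS activated by 45 bp dsDNA with 30 µM each ATP and GTP, 90 min, cGAMP vs cyclic-di-GMP standard by MS, 8-point titration from 10 µM.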 The experiment is classed as biochemical.
The target of experiment [2] is cellular cGAS activity in baculovirus-stimulated THP1-Dual cells (Homo sapiens (Human), UniProt Q8N884). Kind of experiment: Human cGAS cell assay (THP1(vir) IC50): IFN induction in virus-stimulated THP1-Dual cells, IRF Lucia luciferase reporter.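 Note: Eight-point dilution series starting at 10 µM, 1% DMSO, 18 h at 37 °C, luminescence read-out, virus-free wells as 0% and DMSO-treated virus-stimulated wells as 100%.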 The experiment is classed as cell-based.
Chain of cellular cGAS activity in baculovirus-stimulated THP1-Dual cells (Q8N884 whole entry): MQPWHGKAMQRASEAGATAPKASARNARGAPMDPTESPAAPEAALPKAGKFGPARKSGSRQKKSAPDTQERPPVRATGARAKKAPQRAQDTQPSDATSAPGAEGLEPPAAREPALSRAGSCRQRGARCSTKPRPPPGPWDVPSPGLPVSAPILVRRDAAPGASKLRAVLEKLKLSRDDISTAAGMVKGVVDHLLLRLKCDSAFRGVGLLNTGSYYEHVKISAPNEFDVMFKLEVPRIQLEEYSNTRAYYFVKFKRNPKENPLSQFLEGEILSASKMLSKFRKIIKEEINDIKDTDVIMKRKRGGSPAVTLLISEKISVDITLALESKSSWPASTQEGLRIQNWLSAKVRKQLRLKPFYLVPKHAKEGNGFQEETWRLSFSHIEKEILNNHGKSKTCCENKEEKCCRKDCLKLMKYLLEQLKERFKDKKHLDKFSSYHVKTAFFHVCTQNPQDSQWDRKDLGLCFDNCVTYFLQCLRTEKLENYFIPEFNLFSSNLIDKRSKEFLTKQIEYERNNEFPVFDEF
The subject of experiment [3] is pathway directly downstream of cGAS in cGAMP-stimulated THP1-Dual cells. Kind of experiment: cGAMP stimulated counter cell assay (THP1(cGAMP) IC50): IFN induction in cGAMP-stimulated THP1-Dual cells. The experiment is classed as cell-based, human. Conditions: for IC50: Homo sapiens, THP1-Dual; for Ratio THP(cGAMP) IC50/ THP(vir) IC50: selectivity for cGAS inhibition. An excerpt:
6.2 Method: Human cGAS Cell Assay and cGAMP Stimulated Counter Cell Assay (THP1(vir) IC50 and THP1(cGAMP) IC50)
THP1-Dual™ cells (InvivoGen #thpd-nfis) expressing IRF dependent Lucia luciferase reporter were used as basis for both assays. For the detection of cellular cGAS activity cells were stimulated by a baculovirus (pFastbac-1, Invitrogen, no coding insert) infection that delivers the cGAS enzyme stimulating double-stranded DNA (measurement of THP1(vir) IC50).
For the counter assay, cells were stimulated by cGAMP (SigmaAldrich #SML1232) to activate the identical pathway independent and directly downstream of cGAS (measurement of THP1(cGAMP) IC50). Pathway activity was monitored by measuring the Lucia luciferase activity induced by either DNA stimulated cGAS enzyme activity (measurement of THP1(vir) IC50) or by cGAMP directly (measurement of THP1(cGAMP) IC50, counter assay).
Compounds were delivered in 10 mM DMSO solution, serially diluted and transferred to the 384 well assay plate (Greiner #781201) using an Echo acoustic dispenser. Typically, 8 concentrations were used with the highest concentration at 10 μM in the final assay volume followed by ˜1:5 dilution steps. DMSO concentration was set to 1% in the final assay volume. The 384 well assay plate contained 21 test compounds (column 1-22), and DMSO in column 23 and 24.
Cells, cultivated according to manufacturer conditions, were harvested by centrifugation at 300 g/10 min and were then resuspended and diluted to 1.66E5 cells/ml in fresh cell culture medium (RPMI 1640 (Gibco #A10491-01), 10% FCS (Gibco #10500), 1× GlutaMax (Gibco #35050-061), 1× Pen/Strep solution (Gibco #15140-122), 100 μg/ml Normocin (InvivoGen #ant-nr), 100 μg/ml Zeocin (InvivoGen #ant-zn), 10 μg/ml Blasticidin S (Life Technologies #A11139-03)). The baculovirus solution was then added 1:200 (have varied according to virus batch) to the cells (measurement of THP1(vir) IC50). […] 30 μL of the cell/virus-mix were added to each well of the compound plate from column 1-23 via MultiDrop Combi dispenser (5000 cells/well). In column 24, 30 μl/5000 cells/well without virus were added as a low control.
The plates were then incubated for 18 h at 37° C. in a humidified incubator.
Following that, 15 μL of QuantiLuc detection reagent (InvivoGen #rep-qlcg5) were added to each well using a MultiDrop Combi. Measurement was done immediately after the addition using an EnVision reader (US-luminescence read-mode).
Data Evaluation and Calculation:
For data evaluation and calculation, the measurement of the low control was set as 0% control and the measurement of the high control was set as 100% control. The IC50 values were calculated using the standard 4 parameter logistic regression formula. Calculation: [y=(a−d)/(1+(x/c)^b)+d], a=low value, d=high value; x=conc M; c=IC50 M; b=slope

The target of experiment [4] is cellular cGAS activity in dsDNA-stimulated human whole blood (Homo sapiens (Human), UniProt Q8N884). The experiment in a line: Human whole blood assay (hWB IC50): IFNα2a production after dsDNA transfection.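 Note: IFNα-2a in plasma measured by MSD electrochemiluminescence immunoassay after 22 h at 37 °C, 8-point dilution series from 10 µM top concentration, DMSO wells as controls.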 In kind it is cell-based.
Chain of cellular cGAS activity in dsDNA-stimulated human whole blood (Q8N884 whole entry): as above
Procedure: 6.3 Method: Human Whole Blood Assay (Human WB IC50) For the detection of cellular cGAS activity human whole blood was stimulated by transfection with double stranded DNA. Pathway activity was monitored by measuring the IFNα2α production.
Compounds were delivered as 10 mM DMSO solution and serially diluted and transferred to the 96-well cell culture plate (Corning #3595), prefilled with 20 μl OptiMEM (Gibco, #11058-021) in each well, using an Echo acoustic dispenser. Typically, 8 concentrations were used with the highest concentration at 10 μM in the final assay volume followed by ˜1:5 dilution steps. DMSO concentration was set to 0.1% in the final assay volume. The 96-well assay plate contained 10 test compounds, and DMSO in control wells.
Collection of human whole blood from 3 or more healthy donors (male or female, no medication for 7 days except contraceptive and thyroxine) as Na-Citrate blood (e.g. 3.8% in Monovettes from Sarstedt) was conducted in parallel. Whole blood was kept at room temperature for a maximum of 3 hours after collection until use in the assay.
160 μl of the whole blood samples was transferred to each well of the 96-well assay plates filled with compound/OptiMEM. All assay plates were prepared as duplicates with blood from different donors. Blood plates were kept at room temperature for 60 minutes and continuous shaking with 450 rpm, covered with the lid, but not sealed.
20 μl OptiMEM and 9.6:1 Fugene was added to all low control wells.
After covering assay plates with area seals and the lid, blood plates were kept at room temperature for 30 minutes and continuous shaking with 450 rpm, followed by an overnight incubation of 22 h at 37° C. in the incubator, without shaking.
For the detection of IFNα-2a in human plasma, the biotinylated capture antibody (Antibody set IFNA2, Meso Scale Diagnostics #B21VH-3, including coating and capture antibody) was diluted 1:17.5 in Diluent 100 (Meso Scale Diagnostics #R50AA-4), according to the manufacturer's directions. U-Plex MSD GOLD 96-well Small Spot Strepavidin SECTOR Plates (Meso Scale Diagnostics #L45SA-5) were coated with 25 μl diluted capture antibody. Coated plates were incubated for 60 min at room temperature under continuous shaking at 700 rpm. MSD IFNα-2a plates were washed three times with 150 μl wash buffer (1×HBSS, 0.05% Tween).
After blocking the plates with 100 μl block solution/well (1×HBSS with 0.2% Tween, 2% BSA) for 60 min at room temperature and continuous shaking at 700 rpm, plates were emptied as dry as possible by dumping just before continuing with the human plasma.
Whole Blood assay plates were centrifuged at 1600 rpm for 10 minutes. 25 μl of supernatant was transferred with a pipetting robot from each whole blood plate to the corresponding IFNα-2a plate.
Plates were sealed with microplate seals and kept at room temperature again under continuous shaking at 700 rpm for two hours.
Next MSD IFNα-2a plates were washed three times with 150 μl wash buffer (1×HBSS, 0.05% Tween), before adding 25 μl MSD SULFO-TAG IFNα-2a Antibody solution (1:100 diluted in Diluent 3 (Meso Scale Diagnostics #R50AP-2) to each well of the plates.
Afterwards plates were sealed with microplate seals and kept at room temperature again under continuous shaking at 700 rpm for two hours. Finally, MSD IFNα-2a plates were washed three times with 150 μl wash buffer (1×HBSS, 0.05% Tween). 150 μl 2× Read buffer was added to each well and plates were immediately measured with the MSD Sector S600 Reader using the vendor barcode.
For data evaluation and calculation,% control calculation of each well was based on the mean of high (DNA stimulated control) and mean of low (unstimulated control) controls by using the following formula:
The IC50-values were calculated using the standard 4 parameter logistic regression formula.
The mark [5] stands for this setting: Table 1, virus-stimulated THP1 cells, read-out: THP(vir) IC50.
[6] abbreviates: Table 1, cGAMP-stimulated THP1 cells, read-out: THP(cGAMP) IC50.
The mark [7] stands for this setting: Table 1, dsDNA-stimulated human whole blood.

Chain of Human cGAS enzyme (Q8N884 whole entry): as above

In the case of `C[C@H]1CN2CC[C@]1(F)c1cc(Cl)cnc1O[C@H]1C[C@@H](C(=O)O)N(C1)c1nc(nc3c1oc1ccccc13)CC(=O)NCCCC2=O` [Example 01, (1R,9S,11S,34S)-4-Chloro-1-fluoro-34-methyl-26,31-dioxo-8,15-dioxa-6,12,23,27,32,37-hexaaza-heptacyclo[30.2.2.1^9,12.1^13,24.0^2,7.0^14,22.0^16,21]octatriaconta-2,4,6,13(37),14(22),16(21),17,19,23-nonaene-11-carboxylic acid], the 50% inhibitory concentration (IC50) in experiment [1] (Table 1) is 25 nM; in experiment [2] (setting [5]), 150 nM; in experiment [3] (setting [6]), 2900 nM; in experiment [4] (setting [7]), 208 nM. Also, the “Ratio THP(cGAMP) IC50/ THP(vir) IC50” value in experiment [3] (Table 1) stood at 19.

Take `C[C@H]1CN2CC[C@]1(F)c1cc(Cl)cnc1O[C@H]1C[C@@H](C(=O)O)N(C1)c1nc(nc3c1oc1ccccc13)COCCCCC2=O` [Example 08, (1R,9S,11S,34S)-4-chloro-1-fluoro-34-methyl-31-oxo-8,15,26-trioxa-6,12,23,32,37-pentaazabestacyclo[30.2.2.1^9,12.1^13,24.0^2,7.0^14,22.0^16,21]octatriaconta-2,4,6,13(37),14(22),16(21),17,19,23-nonaene-11-carboxylic acid]: the IC50 in experiment [1] (Table 1) was 22 nM; in experiment [2] (setting [5]), 140 nM; in experiment [3] (setting [6]) it was more than 10000 nM; in experiment [4] (setting [7]), 44 nM. For the same compound, the “Ratio THP(cGAMP) IC50/ THP(vir) IC50” value in experiment [3] (Table 1) came to 69.

As to `Cc1nc(N2C[C@@H](CC(=O)Nc3ccncc3)C[C@H]2C(=O)O)c2oc3ccccc3c2n1` [Example 28], the IC50 in experiment [1] (Table 2, compounds from WO 2020/142729 re-tested in the applicant's assay) was 630 nM; in experiment [2] (Table 2, compounds from WO 2020/142729, read-out: THP1(vir) IC50), more than 32000 nM; in experiment [3] (Table 2, compounds from WO 2020/142729, read-out: THP1(cGAMP) IC50), more than 17000 nM; in experiment [4] (Table 2, compounds from WO 2020/142729), more than 9990 nM.

On to `C[C@H]1CCCOCc2nc(c3oc4ccccc4c3n2)N2C[C@H](C[C@H]2C(=O)O)Oc2ncc(Cl)cc2[C@@]2(F)CCN(C[C@@H]2C)C1=O` (single isomer, unassigned) [Example 09], for which the concentration for half-maximal inhibition (IC50) in experiment [1] (Table 1) was determined as 45 nM; in experiment [2] (setting [5]) it was 240 nM; in experiment [3] (setting [6]) it was 3500 nM; in experiment [4] (setting [7]), 161 nM. The “Ratio THP(cGAMP) IC50/ THP(vir) IC50” value in experiment [3] (Table 1) is on record as 15.

As for `C[C@H]1CN2CC[C@]1(F)c1cc(Cl)cnc1O[C@H]1C[C@@H](C(=O)O)N(C1)c1nc(nc3c1oc1ccccc13)CC(=O)NCCOC2=O` [Example 02, (1R,9S,11S,34S)-4-chloro-1-fluoro-34-methyl-26,31-dioxo-8,15,30-trioxa-6,12,23,27,32,37-hexaazaheptacyclo[30.2.2.1^9,12.1^13,24.0^14,22..0^16,21]octatriaconta-2,4,6,13(37),14(22),16(21),17,19,23-nonaene-11-carboxylic acid], the half-maximal inhibitory concentration (IC50) in experiment [1] (Table 1) is 17 nM; in experiment [2] (setting [5]), 110 nM; in experiment [3] (setting [6]) it was more than 10000 nM; in experiment [4] (setting [7]), 115 nM. For the same compound, the “Ratio THP(cGAMP) IC50/ THP(vir) IC50” value in experiment [3] (Table 1) was determined as 94.

Take `C#Cc1cnc2c(c1)[C@@]1(F)CCN(C[C@@H]1C)C(=O)CCCOCCc1nc(c3oc4ccccc4c3n1)N1C[C@H](C[C@H]1C(=O)O)O2` [Example 18, (1R,9S,11S,34S)-4-ethynyl-1-fluoro-34-methyl-31-oxo-8,15,27-trioxa-6,12,23,32,37-pentaazaheptacyclo[30.2.2.1^9,12.1^13,24.0^2,7.0^14,22.0^16,21]octatriaconta-2,4,6,13,16,18,20,22,24(37)-nonaene-11-carboxylic acid]: the IC50 was found to be 6 nM in experiment [1] (Table 1), 35 nM in experiment [2] (setting [5]), 4300 nM in experiment [3] (setting [6]) and 18 nM in experiment [4] (setting [7]). Besides, the “Ratio THP(cGAMP) IC50/ THP(vir) IC50” value in experiment [3] (Table 1) is on record as 122.

Regarding `C[C@H]1CN2CC[C@]1(F)c1cc(Cl)cnc1O[C@H]1C[C@@H](C(=O)O)N(C1)c1nc(nc3c1oc1ccccc13)CCCOCC2=O` [Example 37, (1R,9S,11S,33S)-4-chloro-1-fluoro-33-methyl-30-oxo-8,15,28-trioxa-6,12,23,31,36-pentaaza-heptacyclo[29.2.2.1^9,12.1^13,24.0^2,7.0^14,22.0^16,21]heptatriaconta-2,4,6,13(36),14(22),16(21),17,19,23-nonaene-11-carboxylic acid], the IC50 is 3 nM in experiment [1] (Table 1), 12 nM in experiment [2] (setting [5]), 11000 nM in experiment [3] (setting [6]) and 11 nM in experiment [4] (setting [7]). Besides, in experiment [3] (Table 1), the “Ratio THP(cGAMP) IC50/ THP(vir) IC50” value turned out to be 884.

With `C[C@H]1COCCCc2nc(c3oc4ccccc4c3n2)N2C[C@H](C[C@H]2C(=O)O)Oc2ncc(Br)cc2[C@@]2(F)CCN(C[C@@H]2C)C1=O` [Example 25], the IC50 in experiment [1] (Table 1) was 7 nM; in experiment [2] (setting [5]), 110 nM; in experiment [3] (setting [6]) it was 1700 nM; in experiment [4] (setting [7]), 116 nM. Also, the “Ratio THP(cGAMP) IC50/ THP(vir) IC50” value in experiment [3] (Table 1) was determined as 16.

Consider `C[C@H]1CN2CC[C@]1(F)c1cc(Cl)cnc1O[C@H]1C[C@@H](C(=O)O)N(C1)c1nc(nc3c1oc1cc(F)ccc13)CCCCOCC2=O` [Example 30], for which the 50% inhibitory concentration (IC50) in experiment [1] (Table 1) is 7 nM; in experiment [2] (setting [5]) it was 70 nM; in experiment [3] (setting [6]), 4700 nM; in experiment [4] (setting [7]) it was 22 nM. Moreover, the “Ratio THP(cGAMP) IC50/ THP(vir) IC50” value in experiment [3] (Table 1) was 67.

For the compound `C[C@H]1CN2CC[C@]1(F)c1cc(Cl)cnc1O[C@H]1C[C@@H](C(=O)O)N(C1)c1nc(nc3c1oc1ccccc13)CCCOCCC2=O` [Example 23, (1R,9S,11S,34S)-4-Chloro-1-fluoro-34-methyl-31-oxo-8,15,28-trioxa-6,12,23,32,37-pentaazabestacyclo[30.2.2.1^9,12.1^13,24.0^2,7.0^14,22.0^16,21]octatriaconta-2,4,6,13(37),14(22),16(21),17,19,23-nonaene-11-carboxylic acid], the half-maximal inhibitory concentration (IC50) in experiment [1] (Table 1) was 12 nM; in experiment [2] (setting [5]) it was 69 nM; in experiment [3] (setting [6]) it was 10000 nM; in experiment [4] (setting [7]), 114 nM. In experiment [3] (Table 1), the “Ratio THP(cGAMP) IC50/ THP(vir) IC50” value is 148.

As for `C[C@H]1CN2CC[C@]1(F)c1cc(-c3cnn(C)c3)cnc1O[C@H]1C[C@@H](C(=O)O)N(C1)c1nc(nc3c1oc1ccccc13)CCOCCCC2=O` [Example 20.02], the IC50 in experiment [1] (Table 1) stood at 7 nM; in experiment [2] (setting [5]) it was 8 nM; in experiment [3] (setting [6]), 7900 nM; in experiment [4] (setting [7]), 10 nM. Also, the “Ratio THP(cGAMP) IC50/ THP(vir) IC50” value in experiment [3] (Table 1) came out at 946.

Regarding `C[C@H]1CN2CC[C@]1(F)c1cc(Cl)cnc1O[C@H]1C[C@@H](C(=O)O)N(C1)c1nc(nc3c1oc1cc(F)ccc13)C(F)(F)CCCOCC2=O` [Example 32], the IC50 is 5 nM in experiment [1] (Table 1), 8 nM in experiment [2] (setting [5]), more than 10000 nM in experiment [3] (setting [6]) and 9 nM in experiment [4] (setting [7]). The “Ratio THP(cGAMP) IC50/ THP(vir) IC50” value in experiment [3] (Table 1) was determined as 1190.

Take `C[C@H]1CN2CC[C@]1(F)c1cc(Br)cnc1O[C@H]1C[C@@H](C(=O)O)N(C1)c1nc(nc3c1oc1ccccc13)CCCCOCC2=O` [Example 28]: the IC50 in experiment [1] (Table 1) is 7 nM; in experiment [2] (setting [5]), 47 nM; in experiment [3] (setting [6]) it was 1900 nM; in experiment [4] (setting [7]), 15 nM. Moreover, in experiment [3] (Table 1), the “Ratio THP(cGAMP) IC50/ THP(vir) IC50” value came to 39.

As for `C[C@H]1CN2CC[C@]1(F)c1cc(Cl)cnc1O[C@H]1C[C@@H](C(=O)O)N(C1)c1nc(nc3c1oc1ccccc13)C(F)(F)CCCCCC2=O` [Example 05, (1R,9S,11S,34S)-4-chloro-1,25,25-trifluoro-34-methyl-31-oxo-8,15-dioxa-6,12,23,32,37-pentaazaheptacyclo[30.2.2.1^9,12.1^13,24.0^2,7.0^14,22.0^16,21]octatriaconta-2,4,6,13,16,18,20,22,24(37)-nonaene-11-carboxylicacid], the concentration for half-maximal inhibition (IC50) is 12 nM in experiment [1] (Table 1), 59 nM in experiment [2] (setting [5]), 9400 nM in experiment [3] (setting [6]) and 114 nM in experiment [4] (setting [7]). Also, the “Ratio THP(cGAMP) IC50/ THP(vir) IC50” value in experiment [3] (Table 1) came out at 158.

The term IC50 denotes the concentration needed to halve the response being measured.
